Test results taken from patent US20260108533A1, “COMPOSITIONS AND METHODS FOR THE TREATMENT OF MEIBOMIAN GLAND DYSFUNCTION” (Azura Ophthalmics Ltd., priority 2019, published 2026).

Tested on: stratum corneum (SC)
Experiment: Stratum corneum (SC) tape stripping, keratolytic efficacy
Type: in vivo
Conditions: for increase of SC removal: for 3-6 hours
Excerpt: Keratolytic efficacy of an agent is optionally assessed by examining stratum corneum (SC) tape strippings to measure the total SC protein amount removed and on the tape. The amount of skin mass on the tape is directly proportional to the amount of keratolysis. Salicylic acid is a keratolytic, while retinoic acid is known mostly for its comedolytic properties, and benzoyl peroxide is known mostly for its anti-microbial mechanism. Here, all three were examined for relative keratolytic efficacy.

SMILES | increase of SC removal | effectiveness in interfering with SC cohesion (After 3 hours) | keratolytic effects (tape stripping) (overall comparison)
O=C(O)c1ccccc1O [salicylic acid] | about 10% | – | –
O=C(OOC(=O)c1ccccc1)c1ccccc1 [benzoyl peroxide] | about 10% | significantly more effective in interfering with SC cohesion than either salicylic acid or retinoic acid | comparable to that of salicylic acid and retinoic acid
CC1=C(/C=C/C(C)=C/C=C/C(C)=C/C(=O)O)C(C)(C)CCC1 [retinoic acid] | approximately 35% | – | –
